Source: patent publication US7462600B2, “Macrolides” (Pfizer Inc, priority 2004, dated 2008)
In brackets after ≈: the same amount, converted by molar mass. Like-named read-outs stand apart in the source and are kept apart here.

How the values were obtained:
Format in all cases: cell-based
[1] = test system: Haemophilus influenzae 1218; assay: MIC, microtiter broth dilution (NCCLS M100-S14), H. influenzae 1218 (susceptible)
In short: (§1)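 Antibacterial activity is expressed as the MIC from broth microdilution. Reading follows the NCCLS M100-S14 performance standards, and stocks are made in DMSO at 40 mg/ml.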

[2] = test system: Streptococcus pneumoniae 1175; conditions: microtiter broth dilution
In short: as §1

[3] = test system: Streptococcus pneumoniae 1095; conditions: microtiter broth dilution
In short: as §1

[4] = test system: Streptococcus pyogenes 1079; assay: MIC, microtiter broth dilution (NCCLS M100-S14), S. pyogenes 1079 (ermB)
In short: as §1

[5] = test system: Streptococcus pneumoniae 1016; assay: MIC, microtiter broth dilution (NCCLS M100-S14), S. pneumoniae 1016 (susceptible)
In short: as §1

[6] = H. influenzae 1218 (susceptible)
[7] = S. pneumoniae 1016 (susceptible)

Row | SMILES | MIC H. influenzae 1218 ([1]; Haemophilus influenzae 1218) [µg/mL] | MIC S. pneumo. 1175 ([2]; Streptococcus pneumoniae 1175) [µg/mL] | MIC S. pneumo. 1095 ([3]; Streptococcus pneumoniae 1095) [µg/mL] | MIC S. pyogenes 1079 ([4]; Streptococcus pyogenes 1079) [µg/mL] | MIC S. pneumo. 1016 ([5]; Streptococcus pneumoniae 1016) [µg/mL] | MIC H. influenzae 1218 [1, 6] [µg/mL] | MIC S. pneumo. 1175 ([2]; S. pneumoniae 1175 (mefA)) [µg/mL] | MIC S. pneumo. 1095 ([3]; S. pneumoniae 1095 (ermB)) [µg/mL] | MIC S. pyogenes 1079 ([4]; S. pyogenes 1079 (ermB)) [µg/mL] | MIC S. pneumo. 1016 [5, 7] [µg/mL]
1 | CCC1OC(=O)C(C)C(=O)C(C)C(OC2OC(C)CC(N(C)C)C2O)C(C)(OC)CC(C)C(=O)C(C)C2N(CC3CN(Cc4cnc5ncccn45)C3)C(=O)OC12C (stereo not drawn) [4.26] | 0.25 (≈ 0.308 µM) | 2 (≈ 2.46 µM) | 2 (≈ 2.46 µM) | >64.00 | <0.06 |  |  |  |  | 
2 | CCC1OC(=O)C(C)C(=O)C(C)C(OC2OC(C)CC(N(C)C)C2O)C(C)(OC)CC(C)C(=O)C(C)C2N(C3CN(Cc4c(OC)ccc5ncccc45)C3)C(=O)OC12C (stereo not drawn) [Example 1.102, 3-descladinosyl-11,12-dideoxy-6-O-methyl-3-oxo-12,11-(oxycarbonyl-(1-(6-methoxyquinoline-5-methyl)-azetidin-3-yl)-imino)-erythromycin A] | 2 (≈ 2.38 µM) | <0.063 | <0.063 | 1 (≈ 1.19 µM) | <0.063 |  |  |  |  | 
3 | CCC1OC(=O)C(C)C(=O)C(C)C(OC2OC(C)CC(N(C)C)C2O)C(C)(OC)CC(C)C(=O)C(C)C2N(C3CN(Cc4cccn5nccc45)C3)C(=O)OC12C (stereo not drawn) [Example 1.83, 3-descladinosyl-11,12-dideoxy-6-O-methyl-3-oxo-12,11-(oxycarbonyl-(1-(H-pyrazolo[1,5-a]pyridine-4-methyl)-azetidin-3-yl)-imino)-erythromycin A] | 1 (≈ 1.25 µM) | <0.063 | <0.063 | 4 (≈ 5.01 µM) | <0.063 |  |  |  |  | 
4 | CCC1OC(=O)C(C)C(=O)C(C)C(OC2OC(C)CC(N(C)C)C2O)C(C)(OC)CC(C)C(=O)C(C)C2N(C3CN(S(=O)(=O)c4ccc(-n5cncn5)cc4)C3)C(=O)OC12C (stereo not drawn) [Example 3.52, 3-descladinosyl-11,12-dideoxy-6-O-methyl-3-oxo-12,11-(oxycarbonyl-(1-(4-(1H-1,2,4-triazol-1-yl)benzenesulfonyl)-azetidin-3-yl)-imino)-erythromycin A] | 2 (≈ 2.29 µM) | 0.12 (≈ 0.137 µM) | 0.12 (≈ 0.137 µM) | 4 (≈ 4.57 µM) | <0.06 |  |  |  |  | 
5 | CCC1OC(=O)C(C)C(=O)C(C)C(OC2OC(C)CC(N(C)C)C2O)C(C)(OC)CC(C)C(=O)C(C)C2N(CC3CN(Cc4cccc5nc[nH]c45)C3)C(=O)OC12C (stereo not drawn) [4.20] | 0.25 (≈ 0.308 µM) | 0.25 (≈ 0.308 µM) | 0.12 (≈ 0.148 µM) | 16 (≈ 19.7 µM) | <0.06 |  |  |  |  | 
6 | CCC1OC(=O)C(C)C(=O)C(C)C(OC2OC(C)CC(N(C)C)C2O)C(C)(OC)CC(C)C(=O)C(C)C2N(C3CN(S(=O)(=O)c4cnc5ccccn45)C3)C(=O)OC12C (stereo not drawn) [Example 3.15, 3-descladinosyl-11,12-dideoxy-6-O-methyl-3-oxo-12,11-(oxycarbonyl-(1-(H-imidazo[1,2-a]pyridine-3-sulfonyl)-azetidin-3-yl)-imino)-erythromycin A] | 0.25 (≈ 0.295 µM) | <0.06 | <0.06 | 1 (≈ 1.18 µM) | <0.06 |  |  |  |  | 
7 | CCC1OC(=O)C(C)C(=O)C(C)C(OC2OC(C)CC(N(C)C)C2O)C(C)(OC)CC(C)C(=O)C(C)C2N(CC3CCCN3Cc3cccc4cnccc34)C(=O)OC12C (stereo not drawn) [10.03] |  |  |  |  |  | 8 (≈ 9.56 µM) | 0.25 (≈ 0.299 µM) | 0.25 (≈ 0.299 µM) | 64 (≈ 76.5 µM) | <0.06
8 | CCC1OC(=O)C(C)C(=O)C(C)C(OC2OC(C)CC(N(C)C)C2O)C(C)(OC)CC(C)C(=O)C(C)C2N(CC3CN(Cc4cnn(-c5cccc(F)c5)c4)C3)C(=O)OC12C (stereo not drawn) [4.21] | 0.5 (≈ 0.584 µM) | <0.06 | 2 (≈ 2.34 µM) | 64 (≈ 74.8 µM) | <0.06 |  |  |  |  | 
9 | CCC1OC(=O)C(C)C(=O)C(C)C(OC2OC(C)CC(N(C)C)C2O)C(C)(OC)CC(C)C(=O)C(C)C2N(CC3CCN(Cc4c[nH]c5ncccc45)C3)C(=O)OC12C [Example 11.05, 3-descladinosyl-11,12-dideoxy-6-O-methyl-3-oxo-12,11-(oxycarbonyl-(1-((1H-pyrrolo[2,3-b]pyridin-3-yl)-methyl)-((S)-pyrrolidin-3-yl)-methyl)-imino)-erythromycin A] |  |  |  |  |  | 0.5 (≈ 0.605 µM) | 0.5 (≈ 0.605 µM) | <0.06 | 4 (≈ 4.84 µM) | <0.06
10 | CCC1OC(=O)C(C)C(=O)C(C)C(OC2OC(C)CC(N(C)C)C2O)C(C)(OC)CC(C)C(=O)C(C)C2N(C3CN(S(=O)(=O)c4ccc(OC)c(OCC#N)c4)C3)C(=O)OC12C (stereo not drawn) [Example 3.109, 3-descladinosyl-11,12-dideoxy-6-O-methyl-3-oxo-12,11-(oxycarbonyl-(1-(3-(cyanomethoxy)-4-methoxybenzene-1-sulfonyl)-azetidin-3-yl)-imino)-erythromycin A] | <0.063 | <0.063 | <0.063 | 0.125 (≈ 0.14 µM) | <0.063 |  |  |  |  | 
11 | CCC1OC(=O)C(C)C(=O)C(C)C(OC2OC(C)CC(N(C)C)C2O)C(C)(OC)CC(C)C(=O)C(C)C2N(C3CN(Cc4ccc(C#N)c5ncccc45)C3)C(=O)OC12C (stereo not drawn) [Example 1.96, 3-descladinosyl-11,12-dideoxy-6-O-methyl-3-oxo-12,11-(oxycarbonyl-(1-(quinoline-8-carbonitrile-5-methyl)-azetidin-3-yl)-imino)-erythromycin A] | 1 (≈ 1.2 µM) | <0.063 | <0.063 | 1 (≈ 1.2 µM) | <0.063 |  |  |  |  | 
12 | CCC1OC(=O)C(C)C(=O)C(C)C(OC2OC(C)CC(N(C)C)C2O)C(C)(OC)CC(C)C(=O)C(C)C2N(C3CN(S(=O)(=O)c4ccc5oc(=O)[nH]c5c4)C3)C(=O)OC12C (stereo not drawn) [Example 3.43, 3-descladinosyl-11,12-dideoxy-6-O-methyl-3-oxo-12,11-(oxycarbonyl-(1-(2,3-dihydro-2-oxobenzo[d]oxazole-5-sulfonyl)-azetidin-3-yl)-imino)-erythromycin A] | 0.5 (≈ 0.578 µM) | 0.5 (≈ 0.578 µM) | <0.06 | 1 (≈ 1.16 µM) | <0.06 |  |  |  |  | 
13 | CCC1OC(=O)C(C)C(=O)C(C)C(OC2OC(C)CC(N(C)C)C2O)C(C)(OC)CC(C)C(=O)C(C)C2N(C3CN(S(=O)(=O)c4ccc5c(c4)CC(=O)N5)C3)C(=O)OC12C (stereo not drawn) [Example 3.42, 3-descladinosyl-11,12-dideoxy-6-O-methyl-3-oxo-12,11-(oxycarbonyl-(1-(2-oxoindoline-5-sulfonyl)-azetidin-3-yl)-imino)-erythromycin A] | 2 (≈ 2.32 µM) | 0.5 (≈ 0.579 µM) | <0.06 | 2 (≈ 2.32 µM) | <0.06 |  |  |  |  | 
14 | CCC1OC(=O)C(C)C(=O)C(C)C(OC2OC(C)CC(N(C)C)C2O)C(C)(OC)CC(C)C(=O)C(C)C2N(C3CN(S(=O)(=O)c4ccccc4C#N)C3)C(=O)OC12C (stereo not drawn) [Example 3.18, 3-descladinosyl-11,12-dideoxy-6-O-methyl-3-oxo-12,11-(oxycarbonyl-(1-(2-cyanobenzenesulfonyl)-azetidin-3-yl)-imino)-erythromycin A] | 0.12 (≈ 0.144 µM) | <0.06 | 1 (≈ 1.2 µM) | 2 (≈ 2.4 µM) | <0.06 |  |  |  |  | 
15 | CCC1OC(=O)C(C)C(=O)C(C)C(OC2OC(C)CC(N(C)C)C2O)C(C)(OC)CC(C)C(=O)C(C)C2N(C3CN(C(c4ccccc4)c4ccncc4)C3)C(=O)OC12C (stereo not drawn) [Example 1.69, 3-descladinosyl-11,12-dideoxy-6-O-methyl-3-oxo-12,11-(oxycarbonyl-(1-(phenyl-(pyridin-4-yl)-methyl)-azetidin-3-yl)-imino)erythromycin A] | 1 (≈ 1.2 µM) | <0.06 | <0.06 | 8 (≈ 9.58 µM) | <0.06 |  |  |  |  | 
